Laboratory results published in patent US10821079B2, “PKC activators and combinations thereof” (Cognitive Research Enterprises, Inc., priority 2011, dated 2020).

Legend:
PKC-α-RACK1 = molecular target: T1, PKC-α-RACK1 (Homo sapiens, UniProt P17252); format: cell-based
T1 construct: host or cells: SH-SY5Y neuroblastoma cells
Experimental: (§1) Cells were grown in two chambered slides (Nunc, USA) at low density. For immunofluorescence staining, the cells were washed with PBS (pH 7.4) and fixed with 4% paraformaldehyde for 4 min. Following fixation, the cells were blocked and permeabilized with 5% serum and 0.3% Triton X 100 in 1×PBS for 30 min. The cells were washed three times with 1×PBS and incubated with primary antibodies for 1 hr at 1:100 dilution. The incubation slides were then washed again three times in 1×PBS and were incubated with the FITC anti-rabbit IgG and Rhodamine anti-mouse IgG for 1 hr at 1:400 dilution. The cells were further washed and treated with DAPI (4′,6-diamidino-2′-phenylindole, dihydrochloride) (Thermo Scientific, USA) to stain the nucleus. Finally, the slides were washed and mounted in Pro Long Gold antifade mounting solution (Invitrogen, USA) and were viewed under the LSM 710 Meta confocal microscope (Zeiss) at 350 nm, 490 nm, and 540 nm excitation and 470 nm, 525 nm, and 625 nm emission for DAPI, FITC, and Rhodamine respectively. Six individual fields at 63× oil lens magnification were analyzed for the mean fluorescence intensity (MFI) in each channel. The co-localization correlation generated by the ZEN software (Zeiss).
Coimmunoprecipitation was done following protocol described Besson et al. with slight modification. See Besson et al. (2002) J Biol Chem 277, 22073-22084. […]

synaptosomes = experiment: Western blot of synaptosomes from treated cells; format: cell-based, human; details: RA 10 μM, Bryostatin-1 0.27 nM, 72 hr
Experimental: Synaptosomes from undifferentiated and differentiated cells were prepared following the method described earlier (29). See Nagy et al. (1984) J Neurochem 43, 1114-1123. Briefly, the cells were washes in 1×PBS and homogenized in 10 volumes of buffer (“buffer1”) containing 0.32 M sucrose, 5 mM HEPES pH 7.2, and 0.1 mM EDTA in a Teflon homogenizer. The homogenate was centrifuged at 1000×g for 10 min to remove the nuclear fraction. The supernatant obtained was again spun at 12000×g for 20 min at 4° C. The pellet thus obtained was resuspended in 3 volumes of buffer1 and was layered on to the 16%/10%/8.5% Percoll gradient prepared from the stock isoosmotic percoll containing 9 parts 100% percoll, and 1 part 2.5 M sucrose. The preparation was centrifuged at 15000×g for 20 min at 4° C. Synaptosomes collected from the layer between 10% and 16% gradient was washed with 1×PBS and was centrifuged at 20000×g for 15 min. The purified synaptosomes were homogenized in homogenizing buffer and were subjected to western blot as described before.
Western blot analysis was performed after 72 hr.

[1] = cited from earlier work
PKC-ε = PKC-ε level in primary neurons (immunofluorescence, Western Blot); format: cell-based, rat; details: ASPD-treated primary neurons, 100 nM DCPLA-ME
Experimental: (§2) Cells were harvested in homogenizing buffer containing 10 mM Tris-Cl (pH 7.4), 1 mM PMSF (phenylmethylsulfonyl fluoride), 1 mM EGTA, 1 mM EDTA, 50 mM NaF, and 20 μM leupeptin and were lysed by sonication. The homogenate was centrifuged at 100,000×g for 15 min at 4° C. to obtain the cytosolic fraction (supernatant) and membrane (pellet). The pellet was resuspended in the homogenizing buffer by sonication. Protein concentration was measured using the Coomassie Plus (Bradford) Protein Assay kit (Pierce, USA). Following quantification, 20 μg of protein from each sample was subjected to SDS-PAGE analysis in 4-20% gradient Tris-Glycine gel (Invitrogen, USA). The separated protein was then transferred to nitrocellulose membrane. The membrane was blocked with BSA at room temperature for 15 min and was incubated with primary antibody over night at 4° C. After the incubation, it was washed three times with TBS-T (Tris Buffered saline-Tween 20) and further incubated with alkaline phosphatase conjugated secondary antibody (Jackson Immunoresearch Laboratories, USA) at 1:10,000 dilution for 45 min. The membrane was finally washed three times with TBS-T and developed using the 1-step NBT-BCIP substrate (Pierce, USA). Western Blot was imaged in the ImageQuant RT-ECL (GE Life Sciences, Piscataway, N.J.) and densitometric quantification was performed using the IMAL software (Blanchette Rockefeller Neurosciences Institute, Morgantown, W. Va.). For translocation assays, PKC activation was represented as the percentage of total protein in the membrane (membrane/cytosol+membrane).
Cells were grown in two chambered slides (Nunc, USA) at low density. For immunofluorescence staining, the cells were washed with PBS (pH 7.4) and fixed with 4% paraformaldehyde for 4 min. Following fixation, the cells were blocked and permeabilized with 5% serum and 0.3% Triton X 100 in 1×PBS for 30 min. […] Six individual fields at 63× oil lens magnification were analyzed for the mean fluorescence intensity (MFI) in each channel. […]

[2] = tested on: rat hippocampal primary neurons; experiment: Synaptic marker immunofluorescence in rat hippocampal primary neurons; format: cell-based; details: 50 nM ASPD alone (ASPD) or with 100 nM DCPLA-ME, 20 hr
Experimental: as §1
To estimate the synaptic damage caused by the ASPDs on primary hippocampal neurons, the expression of synaptophysin (a presynaptic marker) and PSD-95 (a postsynaptic marker) was measured by immunofluorescence staining. […] Following a 20 hr incubation period, the cells were stained for nucleus, PSD-95, and synaptophysin. Expression levels were calculated as the change of percentage in mean fluorescence intensity compared to untreated cells.
Primary neurons, treated and untreated, were immunostained for MAP-2, synaptophysin, and PSD-95 to determine the synaptic integrity. […] Following a 20 hr incubation period, the cells were stained for MAP-2, PSD-95, and synaptophysin as described above.

synaptophysin = experiment: Synaptophysin Western Blot in primary rat hippocampal neurons; format: cell-based; details: ASPD + DCPLA-ME
Experimental: as §2

Structure (SMILES)	PKC-α-RACK1 interaction by RACK1 immunoprecipitation (in words) (PKC-α-RACK1)	colocalization correlation R (PKC-α-RACK1)	increase in PKC-ε level in synaptosomes (synaptosomes) [fold]	toxicity ([1]; at 20 μg/week)	dose that may be associated with muscle pain ([1]; in vivo)	PKC-ε protein level (Western Blot, in words) (PKC-ε)	MAP-2 expression (mean fluorescence intensity) [2] [%]	PSD-95 expression (mean fluorescence intensity) [2] [%]	synaptophysin expression (mean fluorescence intensity) [2] [%]	synaptophysin expression by Western Blot (in words) (synaptophysin)
CCC/C=C/C=C/C(=O)O[C@H]1/C(=C/C(=O)OC)C[C@H]2C[C@H]([C@@H](C)O)OC(=O)C[C@H](O)C[C@@H]3C[C@H](OC(C)=O)C(C)(C)C(O)(C[C@@H]4C/C(=C/C(=O)OC)C[C@H](/C=C/C(C)(C)[C@]1(O)O2)O4)O3 [Bryostatin-1]	increased at 15 min but decreased below the control level at 30 min	0.58	2	no toxicity	more than 35 μg/week					
CCCCCC1CC1CC1CC1CCCCCCCC(=O)OC (stereo not shown) [DCPLA-ME, methyl 8-(2-((2-pentylcyclopropyl)methyl)cyclopropyl)octanoate]						restored the PKC-ε protein level to normal	68.87±2.0	99.2±11.3	87.48±3.75	maintained the expression similar to control
